Like-named read-outs stand apart in the source and are kept apart here.
Experiments:
[1] = test system: Colo320; experiment: cells; type: cell-based; conditions: for IC50: read-out: Basal_Viability ATP Colo 320 summarized IC50
[2] = test system: HT-29; experiment: cells; type: cell-based; conditions: for IC50: read-out: Basal_Viability ATP HT-29 summarized IC50
[3] = test system: ECFC/ADSC co-culture cell nuclei number
[4] = test system: SNU-C1; experiment: cells; type: cell-based; conditions: for IC50: read-out: Basal_Viability ATP SNU-C1 summarized IC50
[5] = test system: HCT116; experiment: cells; type: cell-based; conditions: for IC50: read-out: Basal_Viability ATP HCT116 summarized IC50
[6] = test system: HCT116 cells treated with a GSK3β inhibitor; experiment: cells; type: cell-based; conditions: for IC50: read-out: GSK3b inh pretreated_Viability ATP HCT116 summarized IC50
[7] = test system: SW480; experiment: cells; type: cell-based; conditions: for IC50: read-out: Basal_Viability ATP SW480 summarized IC50
[8] = test system: endothelial tube formation in co-cultures of ECFCs and ADSCs treated with VEGF; experiment: cells; type: cell-based, human
[9] = test system: RKO; experiment: cells; type: cell-based; conditions: for IC50: read-out: Basal_Viability ATP RKO summarized IC50
[10] = test system: DLD-1; experiment: cells; type: cell-based; conditions: for IC50: read-out: Basal_Viability ATP DLD-1 summarized IC50
[11] = test system: HeLa cells; experiment: cells; type: cell-based;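 on Hela CellCycMod PI 4N summarized IC50: value tracks stimulation of 4N DNA content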
[12] = assay number 26, GSK3b inhibitor pretreated
[13] = assay number 14, 2N, read-out: Hela CellCycMod PI 2N summarized IC50
[14] = assay number 15, S phase, read-out: Hela CellCycMod PI S Phase summarized IC50
[15] = assay number 16, 4N, read-out: Hela CellCycMod PI 4N summarized IC50
[16] = assay number 17, MI, read-out: Hela CellCycMod PI MI summarized IC50
[17] = assay number 18, cell number, read-out: Hela CellCycMod PI Cell Number summarized IC50

Structure (SMILES) | Basal_Viability ATP Colo 320 IC50/EC50 ([1]; assay number 27, basal) [µM] | Basal_Viability ATP HT-29 IC50/EC50 ([2]; assay number 28, basal) [µM] | Basal_Viability ATP SNU-C1 IC50/EC50 ([4]; assay number 30, basal) [µM] | GSK3b inh pretreated_Viability ATP HCT116 IC50/EC50 [6, 12] [µM] | Basal_Viability ATP SW480 IC50/EC50 ([7]; assay number 24, basal) [µM] | Basal_Viability ATP RKO IC50/EC50 ([9]; assay number 29, basal) [µM] | Basal_Viability ATP DLD-1 IC50/EC50 ([10]; assay number 23, basal) [µM] | IC50 ([1]; assay number 27, basal) [µM] | IC50 ([2]; assay number 28, basal) [µM] | IC50 [11, 13] [µM] | IC50 [11, 14] [µM] | IC50 [11, 15] [µM] | IC50 [11, 16] [µM] | IC50 [11, 17] [µM] | IC50 ([4]; assay number 30, basal) [µM] | IC50 ([5]; assay number 25, basal) [µM] | IC50 [6, 12] [µM] | IC50 ([7]; assay number 24, basal) [µM] | IC50 ([9]; assay number 29, basal) [µM] | IC50 ([10]; assay number 23, basal) [µM] | further results
CN(C)c1ccc(C(=C2C=CC(=[N+](C)C)C=C2)c2ccccc2)cc1 [NCGC00013058-02] | – | – | – | – | – | – | – | – | – | – | – | – | – | – | – | – | – | – | – | – | IC50 [1]: 0.161 µM; IC50 [2]: 0.00982 µM; IC50 ([3]; read-out: VEGF_ADSC\ECFC Angio Hoechst NucArea summarized IC50): 1.72 µM; IC50 [4]: 0.0354 µM; IC50 [5]: 0.0179 µM; IC50 [6]: 0.00983 µM; IC50 [7]: 0.00922 µM; IC50 ([8]; read-out: VEGF_ADSC\ECFC Angio CD31 TubeArea summarized IC50): 0.0605 µM; IC50 [9]: 0.118 µM; IC50 [10]: 0.0218 µM
CCc1cccc(N(C)C(N)=Nc2cccc3ccccc23)c1.Cl [NCGC00015236-04] | > 20 | > 20 | > 20 | > 20 | > 20 | > 20 | > 20 | – | – | – | – | – | – | – | – | – | – | – | – | – | VEGF_ADSC\ECFC Angio Hoechst NucArea IC50/EC50 [3]: > 10 µM; VEGF_ADSC\ECFC Angio CD31 TubeArea IC50/EC50 [8]: > 10 µM
O=C(O)CN(CCN(CC(=O)O)CC(=O)O)CCN(CC(=O)O)CC(=O)O [NCGC00015360-08] | – | – | – | – | – | – | – | > 20 | > 20 | > 10 | > 10 | > 10 | > 10 | > 10 | > 20 | > 6.67 | 0.896 | 3.14 | 2.96 | > 20 | –
CCCCOC(=O)c1ccc(N)cc1 [NCGC00016353-08] | – | – | – | – | – | – | – | > 20 | > 20 | > 10 | > 10 | > 10 | > 10 | > 10 | > 20 | > 20 | 5.61 | 0.586 | 0.137 | 4.56 | –
CCC(=O)c1ccc(O)cc1 [NCGC00018097-06] | – | – | – | – | – | – | – | > 20 | > 20 | > 10 | > 10 | > 10 | > 10 | > 10 | > 20 | > 20 | 6.25 | 4.1 | 7.8 | 6.67 | –
CCC(COC(=O)c1cc(OC)c(OC)c(OC)c1)(c1ccccc1)N(C)C.O=C(O)/C=C\C(=O)O (centres unmarked) [NCGC00018269-05] | > 20 | > 20 | 2.4514 | 1.615 | > 20 | 0.1424 | > 20 | – | – | – | – | – | – | – | – | – | – | – | – | – | Hela CellCycMod PI 2N IC50/EC50 ([11]; assay number 14, 2N): > 10 µM; Hela CellCycMod PI S Phase IC50/EC50 ([11]; assay number 15, S phase): > 10 µM; Hela CellCycMod PI 4N IC50/EC50 ([11]; assay number 16, 4N): > 10 µM; Hela CellCycMod PI MI IC50/EC50 ([11]; assay number 17, MI): > 10 µM; Hela CellCycMod PI Cell Number IC50/EC50 ([11]; assay number 18, cell number): > 10 µM; Basal_Viability ATP HCT116 IC50/EC50 ([5]; assay number 25, basal): > 20 µM
CC[C@H]1CN2CCc3cc(OC)c(OC)cc3[C@@H]2C[C@@H]1C[C@H]1NCCc2cc(OC)c(OC)cc21 [NCGC00024379-16] | 0.0221 | 0.01634 | 0.00228 | 0.001 | 0.001 | 0.00831 | 0.01158 | – | – | – | – | – | – | – | – | – | – | – | – | – | Hela CellCycMod PI 2N IC50/EC50 ([11]; assay number 14, 2N): > 10 µM; Hela CellCycMod PI 4N IC50/EC50 ([11]; assay number 16, 4N): > 10 µM; Hela CellCycMod PI MI IC50/EC50 ([11]; assay number 17, MI): 0.9477 µM; Hela CellCycMod PI Cell Number IC50/EC50 ([11]; assay number 18, cell number): 0.03266 µM; Basal_Viability ATP HCT116 IC50/EC50 ([5]; assay number 25, basal): 0.06147 µM
